Data published in ChEMBL document CHEMBL1131068, “Synthesis and pharmacological evaluation of N,N'-diarylguanidines as potent sodium channel blockers and anticonvulsant agents” (J Med Chem, 1998).

What was measured:
physchem = conditions: octanol/15 mM HEPES/135 mM NaCl, pH 7.4
Description: Partition coefficient (logD7.4) (octanol/15 mM HEPES/135 mM NaCl at pH 7.4)

Mus musculus = test: The in vivo inhibitory activity of compound was measured as effectiveness in preventing seizures induced by loud -high frequency sounds in the DBA/2 mouse after 25 mg/kg ip administration.; assay type: functional; conditions: route intraperitoneal
[1] = molecular target: Sodium channel protein type 2 subunit alpha (Rattus norvegicus, UniProt P04775); test: Sodium channel block, determined by % block of [14C]guanidinium flux in CHO line expressing rat type IIA sodium channels derived from rat brain
Glutamate NMDA receptor = test: Displacement of [3H]MK-801 from rat brain membrane N-methyl-D-aspartate glutamate receptor
[2] = Prevention of seizures induced by loud -high frequency sounds in the DBA/2 mouse after 20 mg/kg ip administration; assay type: functional; conditions: route intraperitoneal

Chain of Sodium channel protein type 2 subunit alpha (P04775 whole entry): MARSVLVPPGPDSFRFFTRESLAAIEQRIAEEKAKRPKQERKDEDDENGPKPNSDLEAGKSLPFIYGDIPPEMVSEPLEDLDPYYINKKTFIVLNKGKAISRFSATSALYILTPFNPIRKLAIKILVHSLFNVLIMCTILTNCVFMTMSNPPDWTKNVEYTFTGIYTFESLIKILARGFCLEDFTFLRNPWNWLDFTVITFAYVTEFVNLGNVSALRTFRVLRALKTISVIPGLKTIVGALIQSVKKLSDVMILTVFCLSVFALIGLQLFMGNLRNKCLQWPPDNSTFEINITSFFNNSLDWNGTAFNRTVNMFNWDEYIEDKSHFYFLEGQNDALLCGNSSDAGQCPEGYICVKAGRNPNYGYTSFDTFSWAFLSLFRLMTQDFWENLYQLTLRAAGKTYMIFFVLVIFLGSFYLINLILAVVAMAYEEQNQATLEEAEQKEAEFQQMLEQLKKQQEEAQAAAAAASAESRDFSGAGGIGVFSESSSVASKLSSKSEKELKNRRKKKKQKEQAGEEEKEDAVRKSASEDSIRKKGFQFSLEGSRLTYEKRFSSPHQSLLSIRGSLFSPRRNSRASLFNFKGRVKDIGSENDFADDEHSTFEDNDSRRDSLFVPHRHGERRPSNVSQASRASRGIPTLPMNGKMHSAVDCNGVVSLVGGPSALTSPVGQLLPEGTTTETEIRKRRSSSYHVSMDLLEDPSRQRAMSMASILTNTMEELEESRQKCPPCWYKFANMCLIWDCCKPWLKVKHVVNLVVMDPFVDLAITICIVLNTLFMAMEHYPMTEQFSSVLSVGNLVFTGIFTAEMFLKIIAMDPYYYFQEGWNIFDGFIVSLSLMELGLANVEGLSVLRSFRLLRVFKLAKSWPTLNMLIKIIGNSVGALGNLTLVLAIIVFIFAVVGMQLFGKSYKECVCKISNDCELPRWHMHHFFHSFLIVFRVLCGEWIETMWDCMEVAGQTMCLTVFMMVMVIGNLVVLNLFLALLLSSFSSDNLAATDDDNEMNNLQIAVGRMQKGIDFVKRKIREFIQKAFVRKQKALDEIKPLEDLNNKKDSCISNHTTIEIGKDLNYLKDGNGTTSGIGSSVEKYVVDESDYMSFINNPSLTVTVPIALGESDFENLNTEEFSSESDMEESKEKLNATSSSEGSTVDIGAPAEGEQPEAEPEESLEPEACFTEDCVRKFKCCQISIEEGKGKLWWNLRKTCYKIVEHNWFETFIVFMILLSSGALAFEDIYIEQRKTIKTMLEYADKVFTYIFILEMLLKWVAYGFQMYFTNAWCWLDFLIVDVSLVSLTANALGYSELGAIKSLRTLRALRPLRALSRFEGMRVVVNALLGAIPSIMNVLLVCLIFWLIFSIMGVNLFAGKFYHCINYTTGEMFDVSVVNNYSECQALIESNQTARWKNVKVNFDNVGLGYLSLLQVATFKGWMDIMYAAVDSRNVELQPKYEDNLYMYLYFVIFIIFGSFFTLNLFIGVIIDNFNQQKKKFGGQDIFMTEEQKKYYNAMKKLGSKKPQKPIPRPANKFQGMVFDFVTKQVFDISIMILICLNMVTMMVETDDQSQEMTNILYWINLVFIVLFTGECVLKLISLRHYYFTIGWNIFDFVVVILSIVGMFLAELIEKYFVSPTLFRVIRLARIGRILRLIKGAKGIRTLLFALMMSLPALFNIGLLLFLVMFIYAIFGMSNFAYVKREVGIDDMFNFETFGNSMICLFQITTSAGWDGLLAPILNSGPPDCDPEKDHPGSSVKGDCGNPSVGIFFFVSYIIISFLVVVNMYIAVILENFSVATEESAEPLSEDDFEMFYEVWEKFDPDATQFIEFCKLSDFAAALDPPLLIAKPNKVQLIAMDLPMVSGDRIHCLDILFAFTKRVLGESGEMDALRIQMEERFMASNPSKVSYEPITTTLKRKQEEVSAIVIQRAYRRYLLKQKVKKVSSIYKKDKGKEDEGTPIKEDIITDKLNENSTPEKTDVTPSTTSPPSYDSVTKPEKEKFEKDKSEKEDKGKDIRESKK

| logD (physchem) | IC50 [1] | IC50 (Glutamate NMDA receptor) | Structure (SMILES) | inhibition in vivo at 25 mg/kg (Mus musculus) | inhibition in vivo at 20 mg/kg [2] |
| --- | --- | --- | --- | --- | --- |
| 4.1 | 130 nM | 3320 nM | CCCCc1ccc(N=C(N)Nc2ccc(CCCC)cc2)cc1 | 82% |  |
| 3.94 |  | 10100 nM | CCC(C)c1ccc(NC(=N)Nc2ccc(C(C)CC)cc2)cc1 (stereo not given) |  | 69% |
|  | 140 nM | 4010 nM | CCCCc1ccc(NC(N)=Nc2ccc(OCc3ccccc3)cc2)cc1 |  | 40% |
| 3.55 | 430 nM |  | NC(=Nc1ccc(Oc2ccccc2)cc1)Nc1ccc(Oc2ccccc2)cc1 |  | 21% |
| 3.46 | 110 nM | 2190 nM | CC(C)(C)c1ccc(NC(=N)Nc2ccc(OCc3ccccc3)cc2)cc1 |  | 27% |
| 0.047 | 8190 nM |  | NC(=Nc1ccc(CCCCO)cc1)Nc1ccc(CCCCO)cc1 |  | 0% |
| 2.7 |  | 2490 nM | COc1ccc(/N=C(\N)Nc2ccc3c4c(cccc24)CC3)c2ccccc12 |  | 50% |
| 3.65 | 1540 nM | > 7700 nM | CC(C)(C)c1ccc(NC(=N)Nc2ccc(C(C)(C)C)cc2)cc1 |  | 60% |
| 1.72 | 1780 nM |  | CCCCOc1ccc(NC(=N)Nc2ccc(CCCCO)cc2)cc1 |  | 11% |
| 3.13 | 850 nM |  | NC(=Nc1ccc(-c2ccccc2)cc1)Nc1ccc(-c2ccccc2)cc1 |  |  |
| 3.52 | 190 nM | 3480 nM | CCCCOc1ccc(N=C(N)Nc2ccc(OCCCC)cc2)cc1 |  | 52% |
| 6.07 | 830 nM | 7790 nM | CCCCCCc1ccc(N=C(N)Nc2ccc(CCCCCC)cc2)cc1 |  | 79% |
| 3.31 | 680 nM |  | CCC(C)c1ccc(NC(N)=Nc2ccc3c4c(cccc24)CC3)cc1 (stereo not given) |  | 33% |
| 4.18 | 840 nM |  | NC(=Nc1ccc(Sc2ccccc2)cc1)Nc1ccc(Sc2ccccc2)cc1 |  |  |
| 1.7 | 1390 nM | 7910 nM | CCc1ccc(NC(=N)Nc2ccc(CC)cc2)cc1 |  | 100% |
| 0.7 | 9210 nM | 10200 nM | Cc1ccc(N=C(N)Nc2ccc(C)cc2)cc1 |  | 43% |
| 2.72 | 460 nM | 17900 nM | CC(C)c1ccc(NC(=N)Nc2ccc(C(C)C)cc2)cc1 |  | 85% |
|  |  |  | Nc1nc2ccc(OC(F)(F)F)cc2s1 [RILUZOLE] |  | 92% |

| Structure (SMILES) | logD (physchem) | IC50 [1] | IC50 (Glutamate NMDA receptor) | inhibition in vivo at 25 mg/kg (Mus musculus) | inhibition in vivo at 20 mg/kg [2] |
| --- | --- | --- | --- | --- | --- |
| CN1CCN(c2ncc(-c3cc(Cl)cc(Cl)c3Cl)c(N)n2)CC1 [SIPATRIGINE] | 3.39 |  |  |  | 66% |
